Measured values reported in patent publication US10758522B2, “Small molecule analogs of the nemo binding peptide” (THE SCRIPPS RESEARCH INSTITUTE, priority 2015, dated 2020).
pIC50: −log10 of the molar value.

Experiments:
[1] = test system: NF-κB target genes; test: qRT-PCR of NF-κB target genes in LPS-stimulated Raw 264.7 cells; type: cell-based, mouse; conditions: for transcription of NF-κB target genes (COX2, IL-6, IL-1β, TNF-α, IκBα, iNOS): Raw 264.7, 1 ug/ml LPS 2 hr, mimetics 50 μM, IKKi VII 2 μM, 8K-NBD 400 μM
Procedure: Effect of the NBD mimetics on expression of NF-kB regulated genes in the Raw mouse macrophage cell line. Treatment of the Raw cells with the indicated drugs prior to addition of LPS reduced NF-kB-mediated gene expression as measured by RT-PCR.
To determine whether the inhibitory effect of the mimetics is TNF-α-dependent, LPS-mediated NF-κB activation via TLR4 was examined to determine a broader inhibitory effect of the novel NBD mimetics. NF-κB was stimulated in Raw 264.7 by 1 ug/ml of LPS for 2 hr and genes transcriptionally regulated by NF-κB were determined by qRT-PCR analysis. Both an IKK active site inhibitor IKKi VII (2 μM) and the 8K-NBD peptide (400 μM) were included as positive controls and the expression of COX2, IL-6, IL-1β, TNF-α, IκBα and iNOS were assessed.
Raw 264.7 cells were treated with a 50 μM solution of the SR compound for 30 minutes, and then the mRNA was harvested 2 hours after addition of 1 μg/mL LPS.
Snap frozen tissues were preserved in RNAlater RNA stabilization solution (ThermoFisher) before processed. Total RNA was extracted from cells or tissues using TRIZOL reagent (Life Technologies) and 1500 ng of messenger RNA (mRNA) was subjected to synthesize complementary DNA (cDNA) using SuperScript VILO cDNA synthesis kit. qRT-PCR was performed in a StepOnePlus Real-Time PCR system using Platinum SYBR Green qPCR SuperMix-UDG (ThermoFisher). Target gene expression was calculated using the comparative CT method (ΔΔCT) and normalized to an internal control gene Actb (β-actin). Primers used are as follows: Ptgs2 (COX-2) forward: […]; Ptgs2 (COX-2) reverse: […]; Nfkbia (IκBα) forward: […]; Nfkbia (IκBα) reverse: […]; Il1b (IL-1β) forward: […]; Il1b (IL-1β) reverse: […]; Nos2 (iNOS) forward: […]; Nos2 (iNOS) reverse: […]; Tnf (TNF) forward: […]; Tnf (TNF) reverse: […]; Il6 (IL-6) forward: […]; Il6 (IL-6) reverse: […]. Actb (β-actin) forward: […]; Actb (β-actin) reverse: […];

[2] = test system: IL-6; test: IL-6 ELISA in LPS-stimulated Raw 264.7 cells; type: cell-based, mouse; conditions: Raw 264.7, 1 ug/ml LPS, supernatant at 24 hr
Procedure: To confirm the qRT-PCR result, LPS-mediated IL-6 production was analyzed in Raw 264.7 cells by ELISA. […] Moreover, SR11481 appears to work more efficiently at a lower concentration around 25 μM. Taken together, four lead compounds were identified through seven rounds of optimization and modification.
Enzyme-Linked Immunosorbent Assay (ELISA). Raw264.7 cells were grown in a 96-well plate and pretreated with vehicle, IKKi VII (2 uM) and small molecules (at indicated concentration) for 1 hr, followed by the stimulation with 1 ug/ml of LPS. Supernatant was collected 24 hr later for ELISA analysis. IL-6 concentration was measured using a mouse IL-6 ELISA kit (BD) according to the manufacturer's instructions.

[3] = test system: IKKβ-NEMO interaction; test: Immunoprecipitation of NEMO and IKKβ immunoblot in Raw 264.7 macrophages and HEK293 cells; type: cell-based; conditions: Raw 264.7 macrophages / HEK293; mimetics 100 μM, 8K-NBD 400 μM
Procedure: The NBD mimetics reduce the interaction between IKKg (NEMO) and IKKß. The indicated concentrations of the drugs were added to HEK 293 or Raw 264.7 cells and cell extracts prepared 30 minutes later. Following immunoprecipitation (IP) of NEMO, the Western was probed for IKKß.
After treatment with the mimetics or NBD peptide, NEMO was immunoprecipitated by an anti-NEMO antibody and IKKβ was immunoblotted to determine the binding of IKKβ to NEMO.
HEK293 or Raw264.7 cells were seeded at 1×10^6 cells/well in 6-well plates and treated with vehicle, small molecule or NBD peptide for indicated time. Cells were lysed in NP-40 lysis buffer supplemented with 1× protease inhibitor cocktails (sigma). Protein was immunoprecipitated by incubating 150 μg of lysate with 1 μg of anti-NEMO antibody (Santa Cruz) on a rotating shaker at 4° C. for 4 hrs, followed by incubation with 20 ul of Protein A agarose beads (ThermoFisher) for 1 hr. Beads were washed in NP40 buffer 3 times and PBS once. Protein was then denatured in SDS-sample buffer and resolved by MINI-PROTEAN TGX 4-15% SDS-PAGE. Anti-IKKβ (1:1000 CST) was used to assess binding of IKKβ to NEMO and anti-NEMO (1:1000 CST) or IgG were used to as a loading control.

[4] = Pharmacokinetics study after ip injection; type: in vivo; conditions: mice, 10 mg/kg ip, 2 hr
Procedure: To determine the stability of the NBD mimetics in vivo, the pharmacokinetics of the compounds was determined in serum following ip injection.
The pharmacokinetic profiles of the NBD mimetics were determined in male C57BL/6J mice (n=3). The drugs were formulated in 10:10:80 of DMSO:Tween 80:water and were dosed by intraperitoneal injection at a final dose of 10 mg/kg. Blood, brain, muscle, spleen, and liver were collected 2 hr post-treatment and were analyzed by mass spectrometry by following the protocol described in ref. 215 (42).

[5] = molecular target: NEMO (Homo sapiens, UniProt Q9Y6K9); conditions: cited from earlier work; for pIC50: read-out: IC50, affinity to NEMO
[6] = molecular target: T1, IKK complex (IKKß, IKKα and NEMO) (Homo sapiens, UniProt Q9Y6K9); test: Co-immunoprecipitation of NEMO with IKKß in 293 cells; type: cell-based; conditions: Zinc-5 at 4 hours, Zinc-13 at 1 hour, NBD peptide at 4 hours
T1 construct: analyzed by Western blot for the level of co-precipitated NEMO; endogenous in cells; host or cells: 293 (HEK293) cells
Source text: FIG. 8 is a bar graph showing the inhibition of TNFα by NBDA-1 (Zinc-13). […] In addition, we have examined the ability of the compounds to disrupt the IKK complex, comprised of IKKß, IKKα and NEMO.
A non-functional, related compound Zinc-7 had no effect.

[7] = test system: NF-κB; test: Firefly luciferase NF-κB reporter assay in TNF-α-stimulated HEK293 cells; type: cell-based; conditions: 293 NF-κB luciferase reporter cells, 10 ng/ml TNF-α; compound 12909780 at 100 μM
Procedure: This model was used to screen a subset of the drug-like ZINC 8.0 database set (˜900,000 compounds) (Irwin et al., 2005). We were able to identify 161 hits that matched at least 6 features out of eight of the pharmacophore model. […] Two compounds termed NBDA-1 (Zinc-13) and NBDA-2 (Zinc-5), successfully passed these filters (See FIG. 4) and were purchased for biological testing. The compounds were then tested for ability to inhibit TNF-alpha-mediated induction of NF-κB activity in a 293 cells stably modified with a NF-κB luciferase reporter.
The activation of NF-κB was then quantitated by measuring the level of luciferase activity. […] Also, protein extracts were prepared from the same cells and the level of phospho-IkB determined, a marker of IKK activity.
To test if the small molecules identified by the in silico screen inhibit NF-κB activation, a HEK293 cell line stably expressing a luciferase reporter driven by a synthetic, NF-κB-dependent promoter was utilized. To induce NF-κB activation, cells were treated with 10 ng/ml of TNF-α and harvested three hours post-treatment for analysis of luciferase activity. […] To determine if compound 12909780 inhibited NF-κB in a dose dependent manner, concentrations were tested at 0, 6.25, 25, 50 and 100 μM.
HEK293 cells stably transfected with luciferase reporter plasmid driven by NF-κB were seeded in 96-well plate in triplicate and pretreated with DMSO or varying small molecules at indicated concentration for 30 min, followed by the stimulation of 10 ng/ml of TNFα for 3 hr. Cell were washed with PBS once and harvested in passive lysis buffer. Luciferase assay (Promega) was performed using a luminometer according to the manufacturer's instructions.

[8] = test system: embryonic fibroblasts from Ercc1−/− mice; test: Senescence rescue assay in ERCC1-deficient murine embryonic fibroblasts (SA-ß-gal); type: cell-based, mouse; conditions: oxidative stress conditions (20% O2)
Source text: In an attempt to identify new drugs able to improve healthspan, we have developed an assay for screening for drugs able to rescue primary “aged” fibroblasts from senescence. This assay uses murine embryonic fibroblasts (MEFs) from mice with accelerated aging due to a deficiency in an important DNA repair pathway, ERCC1-XPF. These MEFs undergo rapid senescence in culture, especially when grown under the high oxygen conditions that confers oxidative stress (FIGS. 18 and 19).

Chain of NEMO (Q9Y6K9 whole entry, species assumed): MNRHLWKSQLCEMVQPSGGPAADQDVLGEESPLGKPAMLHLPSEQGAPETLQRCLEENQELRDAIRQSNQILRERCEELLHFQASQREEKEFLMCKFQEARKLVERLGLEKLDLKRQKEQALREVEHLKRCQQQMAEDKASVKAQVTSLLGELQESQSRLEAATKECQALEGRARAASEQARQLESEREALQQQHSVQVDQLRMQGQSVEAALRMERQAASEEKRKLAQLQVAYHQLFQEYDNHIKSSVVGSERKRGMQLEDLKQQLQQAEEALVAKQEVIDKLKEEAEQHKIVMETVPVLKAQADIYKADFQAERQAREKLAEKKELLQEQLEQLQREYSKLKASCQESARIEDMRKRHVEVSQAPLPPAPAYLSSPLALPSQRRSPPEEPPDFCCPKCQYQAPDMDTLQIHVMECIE
T1 sequence (Q9Y6K9 whole entry, one chain of several): as the sequence (Q9Y6K9 whole entry, species assumed) above

O=C(COCCc1cc(F)cc(F)c1)Nc1ccc(Cl)cn1 [SR12454, N-(5-chloropyridin-2-yl)-2-(3,5-difluorophenethoxy)acetamide]
transcription of NF-κB target genes (COX2, IL-6, IL-1β, TNF-α, IκBα, iNOS) [1]: significantly downregulate the transcription of all NF-κB target genes tested | LPS-mediated mIL-6 production (ELISA) [2]: decreasing by half at 25 μM | disruption of IKKβ-NEMO interaction (NEMO IP, IKKβ blot) [3]: disruption of the association between NEMO and IKK-β | stability in serum after ip injection [4]: moderate stability

O=C(c1ccc(Nc2nccc(-c3cc4ccccc4s3)n2)cc1)N1CCC(N2CCCC2)CC1 [IKKi VII, reference compound]
transcription of NF-κB target genes (COX2, IL-6, IL-1β, TNF-α, IκBα, iNOS) [1]: able to inhibit most NF-κB target gene expression | iNOS expression ([1]; Raw 264.7, LPS): failed to downregulate iNOS expression

IKKβ-derived peptide (701-746): longer IKKβ-derived peptide (701-746) containing all residues and domains (PAKKSEELVAEAHNLCTLLENAIQDTVREQDQSFTALDWSWLQTEE; UniProt O14920 701-746, looked up, fragment)
pIC50 [5]: ~8.00

O=C(COC(=O)Cc1cc(F)cc(F)c1)Nc1ccc(Cl)cn1 [SR11481, 2-((5-chloropyridin-2-yl)amino)-2-oxoethyl 2-(3,5-difluorophenyl)acetate]
transcription of NF-κB target genes (COX2, IL-6, IL-1β, TNF-α, IκBα, iNOS) [1]: failed to suppress all NF-κB target genes | LPS-mediated mIL-6 production (ELISA) [2]: reduction in the accumulation of IL-6 protein at 24 hr | disruption of IKKβ-NEMO interaction (NEMO IP, IKKβ blot) [3]: disruption of the association between NEMO and IKK-β | stability in serum after ip injection [4]: extremely unstable with undetectable levels at 2 hr

traditional 11 amino acid NEMO binding domain peptide of IKKβ, amino acids 735-745, TALDWSWLQTE [11-mer NBD peptide]
pIC50 [5]: ~4.00

O=C(COC(=O)c1c2ccccc2cc2ccccc12)Nc1ncc(C(F)(F)F)cc1Cl [ZINC7, anthracene-9-carboxylic-acid-[2-[[3-chloro-5-(trifluoromethyl)-2-pyridyl]amino]-2-keto-ethyl]-ester]
level of NEMO co-immunoprecipitated with IKKß [6]: had no effect

O=C(COC(=O)Cc1ccccc1)Nc1ncc(Cl)cc1Cl [ZINC9, 2-phenylacetic-acid-[2-[(3,5-dichloro-2-pyridyl)amino]-2-keto-ethyl]-ester]
inhibition of TNF-α-induced NF-κB activation (luciferase reporter), in words [7]: lowered NF-κB activity robustly

CC(Cc1ccc(O)c(O)c1)C(C)Cc1ccc(O)c(O)c1 (centres unmarked) [NDGA]
senescence (SA-ß-gal staining) of ERCC1-deficient MEFs [8]: most effective for rescuing senescence

mutated 11-mer NBD peptide (735-745): 11-mer NBD peptide with substitutions of arginine for W741 and W739 (TALDRSRLQTE; NEMO binding domain; UniProt O14920 735-745, looked up, variant W739R W741R)
binding to NEMO ([5]; W741 and W739 substituted by arginine): unable to bind to NEMO

CC(=O)Oc1ccccc1C(=O)O [aspirin]
senescence (SA-ß-gal staining) of ERCC1-deficient MEFs [8]: most effective for rescuing senescence
